The record followed here is ChEMBL document CHEMBL5244261, “Insights of tankyrases: A novel target for drug discovery” (Eur J Med Chem, 2020).

This test deals with T1, Poly [ADP-ribose] polymerase tankyrase-1 (Homo sapiens, UniProt O95271).
T1 sequence (O95271 whole entry): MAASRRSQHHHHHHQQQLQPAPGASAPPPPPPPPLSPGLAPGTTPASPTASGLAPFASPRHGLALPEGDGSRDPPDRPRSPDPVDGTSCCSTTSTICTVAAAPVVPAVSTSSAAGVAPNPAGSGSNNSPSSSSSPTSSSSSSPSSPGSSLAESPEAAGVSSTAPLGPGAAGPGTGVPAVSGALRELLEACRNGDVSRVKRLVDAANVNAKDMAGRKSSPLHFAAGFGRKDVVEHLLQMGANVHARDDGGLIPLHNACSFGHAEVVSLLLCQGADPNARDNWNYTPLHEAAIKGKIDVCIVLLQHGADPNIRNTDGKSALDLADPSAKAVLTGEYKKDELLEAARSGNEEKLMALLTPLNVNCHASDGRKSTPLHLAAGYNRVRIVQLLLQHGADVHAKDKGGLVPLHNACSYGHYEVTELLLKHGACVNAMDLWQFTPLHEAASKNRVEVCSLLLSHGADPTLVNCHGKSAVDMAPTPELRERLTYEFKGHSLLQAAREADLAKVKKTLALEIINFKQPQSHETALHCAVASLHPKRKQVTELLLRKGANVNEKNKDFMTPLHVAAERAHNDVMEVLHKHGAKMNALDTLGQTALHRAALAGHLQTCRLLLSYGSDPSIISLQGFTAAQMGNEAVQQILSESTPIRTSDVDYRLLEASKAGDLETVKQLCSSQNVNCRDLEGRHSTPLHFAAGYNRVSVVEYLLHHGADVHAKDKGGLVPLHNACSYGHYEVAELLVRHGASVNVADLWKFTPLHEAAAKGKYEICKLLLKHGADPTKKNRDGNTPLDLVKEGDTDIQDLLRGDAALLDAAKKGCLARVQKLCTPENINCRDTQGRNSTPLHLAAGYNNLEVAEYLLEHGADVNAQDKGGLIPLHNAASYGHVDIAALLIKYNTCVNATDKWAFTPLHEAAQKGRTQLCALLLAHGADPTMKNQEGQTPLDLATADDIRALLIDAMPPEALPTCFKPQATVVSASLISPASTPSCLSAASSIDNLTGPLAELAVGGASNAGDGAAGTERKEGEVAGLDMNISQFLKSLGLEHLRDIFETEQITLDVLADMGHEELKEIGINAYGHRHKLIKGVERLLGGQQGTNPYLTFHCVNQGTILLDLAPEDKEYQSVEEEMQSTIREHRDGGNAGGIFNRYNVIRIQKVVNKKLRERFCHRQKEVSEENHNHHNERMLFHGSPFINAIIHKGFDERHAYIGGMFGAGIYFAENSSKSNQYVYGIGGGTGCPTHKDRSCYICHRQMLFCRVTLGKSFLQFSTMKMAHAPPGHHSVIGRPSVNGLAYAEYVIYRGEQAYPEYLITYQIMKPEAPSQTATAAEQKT
The experiment in a line: Inhibition of human recombinant […] TNKS1 (1030 to 1317 residues) expressed in Escherichia coli assessed as inhibition by fluorescence based analysis.

For orientation: IC50 means the midpoint of a concentration-inhibition curve. As for `O=C(Nc1ccc(-c2nc3ccccc3c(=O)[nH]2)cc1)c1cccs1`, the IC50 came out at 21 nM.

In the case of `COC(=O)c1ccc(-c2nc3ccccc3c(=O)[nH]2)cc1`, the 50% inhibitory concentration (IC50) was 23 nM.

Consider `O=C1OCCN1c1ccc(-c2nc3ccccc3c(=O)[nH]2)cc1`, for which the 50% inhibitory concentration (IC50) was 15 nM.

With `CC1(c2ccc(-c3nc4ccccc4c(=O)[nH]3)cc2)NC(=O)NC1=O` (stereo not given), the concentration for half-maximal inhibition (IC50) turned out to be 5 nM.

Take `NS(=O)(=O)c1ccc(-c2nc3ccccc3c(=O)[nH]2)cc1`: the IC50 was 12 nM.
